The conditions of data set [1]: 1,000 bootstrap-resampled data sets.
A short description of data set [2]: Individual pharmacokinetic parameters by renal function subgroup, post hoc empirical Bayesian approach. The conditions noted are these: Total, N=155, mean ± SD.
Description: After fixing the PK parameters and variation in the final model, the PK parameters for individuals in three groups of different renal function were obtained by using post hoc empirical Bayesian approach. The mean values and standard deviation of the parameters in different groups were calculated.
A further data set relates to MRSA. Details: method as in 2 sources, one per row (each row's own in cited_ref): ref Giachetto et al. ([32]) ||| ref Frymoyer et al. ([33]). Conditions: vancomycin 39.92mg·kg-1·d-1; MRSA strains with MIC 1 mg·L-1; ref Giachetto et al. ([32]); cited from earlier work.
The conditions of data set [3]: cited from earlier work. The text has this: In this study, the data of 155 children (aged from 1 month to 16 years) infected with MRS were used to establish a PPK model suitable for Chinese children. And then the PK parameters were obtained by Bayesian method. […] But the value of CL is faster than that reported by Marques-Minana et al.([23]) (0.066 L· ...
Setting [4] is: Japanese pediatric patients, ref Yasuhara et al.([17]).
[5] abbreviates: pediatric patients, ref Wrishko et al.(16).

The values that follow come from publication PMC6706711 (Iranian Journal of Pharmaceutical Research : IJPR, 2019).

Like-named read-outs stand apart in the source and are kept apart here.

Turning to `CN[C@H](CC(C)C)C(=O)N[C@H]1C(=O)N[C@@H](CC(N)=O)C(=O)N[C@H]2C(=O)N[C@H]3C(=O)N[C@H](C(=O)N[C@H](C(=O)O)c4cc(O)cc(O)c4-c4cc3ccc4O)[C@H](O)c3ccc(c(Cl)c3)Oc3cc2cc(c3O[C@@H]2O[C@H](CO)[C@@H](O)[C@H](O)[C@H]2O[C@H]2C[C@](C)(N)[C@H](O)[C@H](C)O2)Oc2ccc(cc2Cl)[C@H]1O` [vancomycin, Vancomycin], in data set [1], the “Exponent for Weight as covariate for CL, bootstrap median” value amounted to 0.852; the “Exponent for Weight as covariate for Vd, bootstrap median” value is recorded as 1.018; the “Exponent for lnGFR as covariate for CL, bootstrap median” value was determined as 2.378; the “θVd (typical value for Weight=9 kg), bootstrap median” value came to 5.39 L. Besides, in data set [2], the CL is 2.22 ± 1.1 mL/min/kg, the Vd was determined as 0.65 ± 0.30 L/kg and the ke is 0.218 ± 0.091 h⁻¹. Also, the “probability of AUC0-24h/MIC ≥ 400” value in the data set with MRSA is 50%. For the same compound, in data set [3] (setting [4]), the CL is 1.98 mL/min/kg and the Vd is 0.522 L/kg. Moreover, the CL in data set [3] (neonates, ref Marques-Minana et al.([23])) is 1.1 mL/min/kg. Moreover, in data set [3] (setting [5]), the CL is 2 mL/min/kg and the Vd was 0.57 L/kg.
